Assay [1] relates to HCT-116. Nature of the assay: Induction of apoptosis in human HCT116 cells assessed as increase in caspase 3/7 activation at 50 to 200 uM after 17 hrs by luciferase coupled luminescence assay. The assay is classed as functional, cell-based.
Assay [2] in a line: Cytotoxicity against human HCT116 cells assessed as decrease in cell viability after 17 hrs by MTT assay. The assay is classed as functional, cell-based. The conditions noted are these: HCT-116, 17 h. Background: Tetrazolium assays rely on reduction of a dye to a coloured formazan, in cell work by metabolically active cells.
Assay [3] relates to HCT-116. Nature of the assay: Induction of apoptosis in human HCT116 cells assessed as nuclear condensation at 100 uM after 48 hrs by Hoechst 33342 staining based assay. The assay is classed as functional, cell-based.
Assay [4] concerns HCT-116. Nature of the assay: Induction of ROS generation in human HCT116 cells at 12.5 uM after 5 mins by DCFH-DA probe based fluorescence assay relative to control. The assay is classed as functional, cell-based.
Assay [5] deals with HCT-116. In words: Cytotoxicity against human HCT116 cells assessed as decrease in cell viability at 6.25 to 200 uM after 17 hrs by MTT assay. The assay is classed as functional, cell-based.
Assay [6] deals with HCT-116. In words: Induction of H2O2 accumulation in human HCT116 cells at 12.5 uM relative to control. The assay is classed as functional.

SMILES strings stand for the structures. The source made the active and inactive calls. The calls are words filed in the database; no cut-off is given here.

On to `CC(C)[C@H]1CC[C@H](C)[C@@]23CC[C@@](C)(C=C12)OO3`, for which the result in assay [1], in assay [3], in assay [4] and in assay [5] was Active. In addition, the half-inhibitory concentration (IC50) (commonly the concentration needed to halve the response being measured) in assay [2] was determined as 38.6 µM. For the same molecule, the “fold change (FC)” value in assay [6] is on record as 2 - 3.

Turning to `CC1=C[C@@H]2C(=CC1)[C@](C)(OO)CC[C@@H]2C(C)C`, the outcome in assay [1], in assay [3], in assay [4] and in assay [5] was Active. For the same molecule, the concentration for half-maximal inhibition (IC50) in assay [2] is 61.2 µM. The “fold change (FC)” value in assay [6] is 2 - 3.

Regarding `Cc1ccc2c(c1)[C@H](C(C)C)CC[C@@]2(C)OO`, the outcome in assay [1], in assay [3], in assay [4] and in assay [5] was Active. Besides, the IC50 in assay [2] worked out at 43.7 µM. Moreover, the “fold change (FC)” value in assay [6] is 2 - 3.
